Assay results reported in patent US20220142164A1, “HERBICIDAL COMPOUNDS” (SYNGENTA CROP PROTECTION AG, priority 2019, published 2022).

How the values were obtained:
Assay in all cases: Post-emergence efficacy, glasshouse pot test
Assay type in all cases: in vivo
Conditions in all cases: 312 h, post-emergence spray, Application Rate 500 g/Ha, evaluated after 13 days, 100=total damage to plant, 0=no damage to plant
[1] = test system: Echinochloa crus-galli (ECHCG)
Protocol: (§1) Seeds of a variety of test species were sown in standard soil in pots. After cultivation for 14 days (post-emergence) under controlled conditions in a glasshouse (at 24/16° C., day/night; 14 hours light; 65% humidity), the plants were sprayed with an aqueous spray solution derived from the dissolution of the technical active ingredient formula (I) in a small amount of acetone and a special solvent and emulsifier mixture referred to as IF50 (11.12% Emulsogen EL360 TM+44.44% N-methylpyrrolidone+44.44% Dowanol DPM glycol ether), to create a 50 g/I solution which was then diluted to required concentration using 0.25% or 1% Empicol ESC70 (Sodium lauryl ether sulphate)+1% ammonium sulphate as diluent. The test plants were then grown in a glasshouse under controlled conditions (at 24/16° C., day/night; 14 hours light; 65% humidity) and watered twice daily. After 13 days the test was evaluated (100=total damage to plant; 0=no damage to plant). Ipomoea hederacea (IPOHE), Euphorbia heterophylla (EPHHL), Chenopodium album (CHEAL), Amaranthus palmeri (AMAPA), Lolium perenne (LOLPE), Digitaria sanguinalis (DIGSA), Eleusine indica (ELEIN), Echinochloa crus-galli (ECHCG), Setaria faberi (SETFA)

[2] = test system: Euphorbia heterophylla (EPHHL)
Protocol: as §1

[3] = test system: Amaranthus palmeri (AMAPA)
Protocol: as §1

[4] = test system: Setaria faberi (SETFA)
Protocol: as §1

[5] = test system: Digitaria sanguinalis (DIGSA)
Protocol: as §1

[6] = test system: Ipomoea hederacea (IPOHE)
Protocol: as §1

[7] = test system: Eleusine indica (ELEIN)
Protocol: as §1

[8] = test system: Lolium perenne (LOLPE)
Protocol: as §1

[9] = test system: Chenopodium album (CHEAL)
Protocol: as §1

| Structure (SMILES) | pest or weed control at 500 g/ha [1] [%] | pest or weed control at 500 g/ha [2] [%] | pest or weed control at 500 g/ha [3] [%] | pest or weed control at 500 g/ha [4] [%] | pest or weed control at 500 g/ha [5] [%] | pest or weed control at 500 g/ha [6] [%] | pest or weed control at 500 g/ha [7] [%] | pest or weed control at 500 g/ha [8] [%] | pest or weed control at 500 g/ha [9] [%] |
| --- | --- | --- | --- | --- | --- | --- | --- | --- | --- |
| COC(=O)CN(C)C(=O)C[n+]1ccc(-c2ncns2)cc1 [Compound A1] | 0 | 10 | 0 | 0 | 0 | 10 | 10 | 10 | 10 |
| COC(=O)CCNC(=O)C[n+]1ccc(-c2ncns2)cc1 [Compound A2, methyl 3-[[-2-[4-(1,2,4-thiadiazol-5-yl)pyridin-1-ium-1-yl]acetyl]amino]propanoate bromide] | 20 | 40 | 80 | 50 | 40 | 50 | 30 | 10 | 90 |
| O=C(O)CNC(=O)C[n+]1ccc(-c2ncns2)cc1 [Compound A3, 2-[[2-[4-(1,2,4-thiadiazol-5-yl)pyridin-1-ium-1-yl]acetyl]amino]acetic acid chloride] | 100 | 100 | 90 | 100 | 100 | 100 | 100 | 70 | 90 |
| O=C(O)CCNC(=O)C[n+]1ccc(-c2ncns2)cc1 [Compound A4, 3-[[2-[4-(1,2,4-thiadiazol-5-yl)pyridin-1-ium-1-yl]acetyl]amino]propanoic Acid Chloride] | 70 | 90 | 90 | 70 | 100 | 90 | 100 | 90 | 90 |
| COC(=O)CNC(=O)C[n+]1ccc(-c2ncns2)cc1 [Compound A5, methyl 2-[[2-[4-(1,2,4-thiadiazol-5-yl)pyridin-1-ium-1-yl]acetyl]amino]acetate bromide] | 90 | 80 | 90 | 60 | 100 | 80 | 100 | 30 | 90 |
| CN(CC(=O)O)C(=O)C[n+]1ccc(-c2ncns2)cc1 [Compound A6] | 60 | 90 | 100 | 40 | 90 | 40 | 20 | 40 | 90 |
| CC(NC(=O)C[n+]1ccc(-c2ncns2)cc1)C(=O)O (stereo not drawn) [Compound A7] | 100 | 100 | 100 | 100 | 100 | 100 | 100 | 80 | 90 |
| COC(=O)C(C)NC(=O)C[n+]1ccc(-c2ncns2)cc1 (stereo not drawn) [Compound A8] | 100 | 100 | 100 | 100 | 100 | 100 | 100 | 60 | 90 |
| O=C(C[n+]1ccc(-c2ncns2)cc1)NCCS(=O)(=O)[O-] [Compound A9, 2-[[2-[4-(1,2,4-thiadiazol-5-yl)pyridin-1-ium-1-yl]acetyl]amino]ethanesulfonate] | 30 | 90 | 90 | 60 | 30 | 60 | 50 | 30 | 70 |
| CN(CCS(=O)(=O)[O-])C(=O)C[n+]1ccc(-c2ncns2)cc1 [Compound A10] | 30 | 80 | 90 | 50 | 40 | 50 | 40 | 20 | 20 |
| O=C(O)CNC(=O)CC[n+]1ccc(-c2ncns2)cc1 [Compound A13] | 50 | 60 | 100 | 80 | 70 | 20 | 70 | 40 | 30 |
| O=C(CC[n+]1ccc(-c2ncns2)cc1)NCS(=O)(=O)[O-] [Compound A14, [3-[4-(1,2,4-thiadiazol-5-yl)pyridin-1-ium-1-yl]propanoylamino]methanesulfonate] | 70 | 20 | 100 | 70 | 100 | 30 | 60 | 10 | 90 |
| O=C(O)CCSC[n+]1ccc(-c2ncns2)cc1 [Compound A15, 3-[[4-(1,2,4-thiadiazol-5-yl)pyridin-1-ium-1-yl]methylsulfanyl]propanoic acid chloride] | 100 | 40 | 100 | 100 | 100 | 40 | 90 | 50 | 90 |
| O=C(C[n+]1ccc(-c2ncns2)cc1)NC1(C(=O)O)CC1 [Compound A16] | 90 | 90 | 100 | 100 | 80 | 50 | 40 | 50 | 90 |
| CC(C)(NC(=O)C[n+]1ccc(-c2ncns2)cc1)C(=O)O [Compound A17] | 60 | 70 | 100 | 80 | 80 | 40 | 60 | 30 | 50 |
| O=C(O)CCS(=O)(=O)C[n+]1ccc(-c2ncns2)cc1 [Compound A18, 3-[[4-(1,2,4-thiadiazol-5-yl)pyridin-1-ium-1-yl]methylsulfonyl]propanoic acid 2,2,2-trifluoroacetate] | 90 | 60 | 100 | 100 | 100 | 70 | 100 | 40 | 90 |
| O=C(O)CS(=O)(=O)C[n+]1ccc(-c2ncns2)cc1 [Compound A19] | 30 | 30 | 40 | 20 | 30 | 10 | 30 | 20 | 50 |
